# Where two headings read alike, the source gives them in different places.
# Legend:
# [1] = molecular target: T1, BTK kinase domain (389-659) (Homo sapiens, UniProt Q06187); test: kinase inhibition, Caliper mobility shift; type: biochemical; settings: 0.047 mM ATP, 0.002 mM peptide, pH 7.5, 32 °C, 60 min
# T1 construct: kinase domain 389-659; His-PreScission (with or without Avi) construct, Sf9 cells
# Excerpt: kinase inhibition, Caliper mobility shift on BTK kinase domain (389-659) | weaker affinity for BTK of the DBt-6 and DBt-8 was additionally corroborated by enzymatic inhibition
# BTK-NanoLuc = molecular target: T2, BTK-NanoLuc (Homo sapiens, UniProt Q06187); test: NanoBRET tracer displacement; type: cell-based; settings: digitonin-permeabilized cells, 0.5 µM Tracer-05, 2 h; ATP site
# T2 construct: full-length BTK fused to NanoLuc (pLenti6 BTK-Nanoluc), transiently expressed in HEK293-A cells
# T2 sequence (Q06187 2-659): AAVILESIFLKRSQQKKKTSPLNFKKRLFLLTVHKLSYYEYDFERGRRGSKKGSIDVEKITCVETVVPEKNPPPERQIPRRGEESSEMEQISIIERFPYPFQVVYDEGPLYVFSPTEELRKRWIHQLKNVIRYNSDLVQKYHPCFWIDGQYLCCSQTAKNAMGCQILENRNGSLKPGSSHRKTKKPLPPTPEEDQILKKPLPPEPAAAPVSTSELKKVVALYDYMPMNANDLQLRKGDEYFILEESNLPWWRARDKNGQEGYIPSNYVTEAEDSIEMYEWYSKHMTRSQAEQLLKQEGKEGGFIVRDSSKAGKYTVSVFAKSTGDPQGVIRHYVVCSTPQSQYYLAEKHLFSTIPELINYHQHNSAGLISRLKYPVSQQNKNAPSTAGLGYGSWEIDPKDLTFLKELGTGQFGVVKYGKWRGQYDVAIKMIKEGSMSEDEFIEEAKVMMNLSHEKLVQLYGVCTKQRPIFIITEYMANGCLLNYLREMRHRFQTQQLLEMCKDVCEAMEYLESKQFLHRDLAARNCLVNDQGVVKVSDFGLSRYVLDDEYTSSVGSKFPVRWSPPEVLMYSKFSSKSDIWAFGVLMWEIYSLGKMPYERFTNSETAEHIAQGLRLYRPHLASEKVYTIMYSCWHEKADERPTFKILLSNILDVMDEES
# [2] = molecular target: T3, DCAF1(1073-1399)_E1398S (WDR domain, Avi/His-tagged) (Homo sapiens, UniProt Q9Y4B6, E1398S); test: TR-FRET competition with bodipy ligand; type: binding; settings: 30 mM phosphate pH 7.4, 140 mM NaCl, 22 °C, no BTK added
# T3 construct: WDR (WD40) domain 1073-1399 with E1398S; Avi and His tags (N-terminal Avi, C-terminal His for SPR; C-terminal Avi-His for TR-FRET), biotinylated by BirA; Sf9 cells
# T3 sequence (Q9Y4B6 1073-1399 E1398S): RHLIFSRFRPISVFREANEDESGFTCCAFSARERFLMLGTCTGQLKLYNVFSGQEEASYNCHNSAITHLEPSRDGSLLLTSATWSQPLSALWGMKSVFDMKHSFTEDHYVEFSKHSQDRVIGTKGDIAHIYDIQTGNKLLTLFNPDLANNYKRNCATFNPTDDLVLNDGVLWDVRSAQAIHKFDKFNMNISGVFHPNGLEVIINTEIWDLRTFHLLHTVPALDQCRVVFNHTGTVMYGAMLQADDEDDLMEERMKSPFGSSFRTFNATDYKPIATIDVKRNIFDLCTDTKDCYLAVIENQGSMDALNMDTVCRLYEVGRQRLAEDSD
# [3] = molecular target: T3, DCAF1(1073-1399)_E1398S (WDR domain, Avi/His-tagged); test: fluorescence polarization; type: binding
# T1 sequence (Q06187 389-659): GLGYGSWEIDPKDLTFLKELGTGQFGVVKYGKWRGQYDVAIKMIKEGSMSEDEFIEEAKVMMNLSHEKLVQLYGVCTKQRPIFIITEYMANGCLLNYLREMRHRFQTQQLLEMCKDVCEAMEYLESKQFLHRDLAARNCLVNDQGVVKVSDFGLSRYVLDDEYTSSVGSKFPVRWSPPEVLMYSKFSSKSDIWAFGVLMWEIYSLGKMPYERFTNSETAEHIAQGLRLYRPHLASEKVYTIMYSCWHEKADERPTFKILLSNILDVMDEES
smiles,measurement,setting,value
Cc1c(NC(=O)c2ccc(C(C)(C)O)cc2F)cc(F)cc1-c1ncnc2[nH]c(-c3ccc(CNCCOCCOCC(=O)N4CCCC(C(=O)N5CCN(c6ccc7c(NCCN)nc(C8(c9ccc(Cl)cc9)CCCCC8)nc7c6)CC5)C4)cc3)cc12 (centres unmarked) [DBt-6],IC50,[1],510 nM
same,IC50,BTK-NanoLuc,2350 nM
same,IC50,[2]; read-out: IC50,56 ± 37 nM
Cc1cc(C)n2c1C=C1C=CC(CCC(=O)N3CCN(c4ccc5c(NCCN)nc(C(C)(C)c6ccc(Cl)cc6)nc5c4)CC3)=[N+]1[B-]2(F)F [bodipy labelled ligand],Kd,[3],69 ± 6 nM
"CC(=O)N1CCN(c2ccc3c(NCCN)nc(C4(c5ccc(Cl)cc5)CCCCC4)nc3c2)CC1 [compound 13, VHF543]",IC50,[2],IC50 determined by DCAF1 TR-FRET for selected DCAF1 binders

# From article doi:10.1101/2023.04.09.536153v2, “Reinstating targeted protein degradation with DCAF1 PROTACs in CRBN PROTAC resistant settings” (biorxiv, 2023)
